Experimental data published in publication PMC9732672, “Pyrazolyl-s-triazine with indole motif as a novel of epidermal growth factor receptor/cyclin-dependent kinase 2 dual inhibitors” (Frontiers in Chemistry, 2022).
Like-named read-outs stand apart in the source and are kept apart here.

Tests used:
[1] = test system: A549 (non-small cell lung cancer) cells; test: MTT cytotoxicity assay, A549; assay type: cell-based, human; conditions: read-out: IC50 ± STDEV, A549
Experimental: (§1) The parental MCF7 (breast cancer cell line), A549 (non-small cell lung cancer cell line), and human dermal fibroblast (HDF) (human dermal cell line) cells were obtained from the American Type Culture Collection (ATCC, Manassas, VA, United States). MCF7 and A549 cells were cultured in RPMI 1640 medium (EuroClone, Italy) supplemented with 10% (v/v) heat-inactivated fetal bovine serum (FBS) (EuroClone, Italy), 1% penicillin-streptomycin (EuroClone, Italy), and 2 mM L-glutamine.
(§2) The cytotoxic activity of the tested compounds were tested using MTT assay. […] Then, the cell viability was recored and IC50 values were calcualted. ([Mosmann, 1983]; [Nafie et al., 2020c]).

[2] = test system: MCF-7 (breast cancer) cells; test: MTT cytotoxicity assay, MCF-7; assay type: cell-based, human; conditions: read-out: IC50 ± STDEV, MCF-7
Experimental: as §1, §2

[3] = test system: HDFs (non-cancerous human dermal fibroblasts); test: MTT cytotoxicity assay, HDFs; assay type: cell-based; conditions: non-cancerous cells, average ±SD of four independent experiments, read-out: IC50 ± STDEV, HDFs
Experimental: as §1, §2

[4] = biological target: T1, EGFR (Homo sapiens, UniProt P00533); test: EGFR-TK kinase assay (ADP-Glo); assay type: biochemical; conditions: Mean ± SD of three independent replicates; read-out: EGFR inhibition IC50
T1 construct: purchased Promega V9261
T1 sequence (P00533 25-1210): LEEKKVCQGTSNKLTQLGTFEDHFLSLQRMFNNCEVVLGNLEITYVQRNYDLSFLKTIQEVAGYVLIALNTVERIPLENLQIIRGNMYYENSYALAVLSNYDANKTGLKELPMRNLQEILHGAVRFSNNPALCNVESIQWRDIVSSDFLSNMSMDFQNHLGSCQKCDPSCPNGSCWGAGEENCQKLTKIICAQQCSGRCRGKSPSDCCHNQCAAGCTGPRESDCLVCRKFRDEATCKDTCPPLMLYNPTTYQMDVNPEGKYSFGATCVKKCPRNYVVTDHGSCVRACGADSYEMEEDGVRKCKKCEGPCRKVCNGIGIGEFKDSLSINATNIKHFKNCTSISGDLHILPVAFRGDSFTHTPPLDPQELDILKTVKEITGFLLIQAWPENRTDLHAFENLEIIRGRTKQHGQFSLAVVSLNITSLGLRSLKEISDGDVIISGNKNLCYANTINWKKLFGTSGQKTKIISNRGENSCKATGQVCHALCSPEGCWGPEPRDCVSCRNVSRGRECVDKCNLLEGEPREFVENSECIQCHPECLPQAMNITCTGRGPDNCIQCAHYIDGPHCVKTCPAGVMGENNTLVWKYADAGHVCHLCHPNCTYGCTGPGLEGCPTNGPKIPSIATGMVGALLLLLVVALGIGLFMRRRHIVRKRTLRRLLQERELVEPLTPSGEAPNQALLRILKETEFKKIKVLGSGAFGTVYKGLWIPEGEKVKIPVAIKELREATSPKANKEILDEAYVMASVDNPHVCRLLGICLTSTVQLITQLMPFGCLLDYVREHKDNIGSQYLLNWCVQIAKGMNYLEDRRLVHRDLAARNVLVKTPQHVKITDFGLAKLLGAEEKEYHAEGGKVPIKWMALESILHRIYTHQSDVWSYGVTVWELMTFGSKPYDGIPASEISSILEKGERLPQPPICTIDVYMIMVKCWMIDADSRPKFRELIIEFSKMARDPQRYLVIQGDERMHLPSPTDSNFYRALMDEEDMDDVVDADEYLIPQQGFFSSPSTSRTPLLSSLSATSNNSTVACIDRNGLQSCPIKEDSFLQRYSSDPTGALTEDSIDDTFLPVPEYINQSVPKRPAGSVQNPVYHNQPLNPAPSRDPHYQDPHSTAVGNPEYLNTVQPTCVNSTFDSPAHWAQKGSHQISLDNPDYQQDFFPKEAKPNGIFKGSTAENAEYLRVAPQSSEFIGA
Experimental: EGFR-TK assay kit (ADP-Glo™ kinase assay, Cat No. V9261, Promega, United States) kinase assay was performed to evaluate the capacity of 3h, 3i, and 3j to inhibit EGFR.

[5] = biological target: CDK-2 (Homo sapiens, UniProt P24941); test: CDK-2 enzyme inhibition; assay type: biochemical; conditions: Mean ± SD of three independent replicates
[6] = test system: A549 cells; test: Flow cytometry, Annexin V/PI staining; assay type: cell-based, human; conditions: A549, IC50 value, 48 h; for cells undergoing late apoptosis: control 0.16%; for cells undergoing early apoptosis: control 0.42%; for total apoptosis / total apoptotic cell death, fold vs control: control 0.61%; for necrosis-mediated cell death / necrosis-mediated cell death, fold increase: control 0.97%
Experimental: A549 cells were seeded into 6-well culture plates (3-5× 10^5 cells/well) and incubated overnight. […] Next, media supernatants and cells were collected and rinsed with ice-cold PBS. The cells were then suspended in the flow cytometry solutions and cells were stained with Annexin V/PI, and data was acquired using a Cytoflex FACS machine. Data were analyzed using cytExpert software. ([Hisham et al., 2019]; [Khodair et al., 2019]; [Nafie et al., 2020b]).

[7] = average ±SD of four independent experiments
[8] = Homo sapiens, A549, average ±SD of four independent experiments
[9] = Homo sapiens, MCF7, average ±SD of four independent experiments

Molecule: 2-(4,6-Di (piperidin-1-yl)-1,3,5-triazin-2-yl)-3-(1H-indol-3-yl)-2,3-dihydro-1H-pyrazole-4-carbonitrile [Compound 5a]
- IC50 [1, 7]: 66.1 ± 5.71 µM
- IC50 [2, 7]: 65.2 ± 1.43 µM
- IC50 [3]: > 500 µM

Molecule: Nc1cc(-c2c[nH]c3ccccc23)nn1-c1nc(N2CCCCC2)nc(N2CCCCC2)n1 [Compound 3a, 1-(4,6-Di (piperidin-1-yl)-1,3,5-triazin-2-yl)-3-(1H-indol-3-yl)-1H-pyrazol-5-amine]
- IC50 [1, 8]: > 500 µM
- IC50 [2, 9]: > 500 µM
- IC50 ([3]; Homo sapiens, Fibroblast): > 500 µM
- melting point: 288 to 290 °C

Molecule: Nc1cc(-c2c[nH]c3ccccc23)nn1-c1nc(N2CCOCC2)nc(N2CCOCC2)n1 [Compound 3b, 1-(4,6-Dimorpholino-1,3,5-triazin-2-yl)-3-(1H-indol-3-yl)-1H-pyrazol-5-amine]
- IC50 [1, 8]: 3.08 ± 1.27 µM
- IC50 [2, 9]: 11.7 ± 1.77 µM
- IC50 ([3]; Homo sapiens, Fibroblast): 4.47 ± 1.43 µM
- melting point: 188 to 189 °C

Molecule: Nc1cc(-c2c[nH]c3ccccc23)nn1-c1nc(N2CCCCC2)nc(N2CCOCC2)n1 [Compound 3c, 3-(1H-Indol-3-yl)-1-(4-morpholino-6-(piperidin-1-yl)-1,3,5-triazin-2-yl)-1H-pyrazol-5-amine]
- IC50 [1, 8]: 4.82 ± 0.29 µM
- IC50 [2, 9]: 12.6 ± 1.03 µM
- IC50 ([3]; Homo sapiens, Fibroblast): 6.82 ± 1.34 µM
- melting point: 178 to 179 °C

Molecule: Nc1cc(-c2c[nH]c3ccccc23)nn1-c1nc(Nc2ccccc2)nc(N2CCCCC2)n1 [Compound 3d, 4-(5-Amino-3-(1H-indol-3-yl)-1H-pyrazol-1-yl)-N-phenyl-6-(piperidin-1-yl)-1,3,5-triazin-2-amine]
- IC50 [1, 8]: 10.6 ± 2.88 µM
- IC50 [2, 9]: 11.7 ± 4.43 µM
- IC50 ([3]; Homo sapiens, Fibroblast): 22.9 ± 5.2 µM

Molecule: Nc1cc(-c2c[nH]c3ccccc23)nn1-c1nc(Nc2ccc(Cl)cc2)nc(N2CCCCC2)n1 [Compound 3e, 4-(5-Amino-3-(1H-indol-3-yl)-1H-pyrazol-1-yl)-N-(4-chlorophenyl)-6-(piperidin-1-yl)-1,3,5-triazin-2-amine]
- IC50 [1, 8]: 9.57 ± 1.26 µM
- IC50 [2, 9]: 15.2 ± 0.74 µM
- IC50 ([3]; Homo sapiens, Fibroblast): 11.2 ± 0.69 µM
- melting point: 295 to 296 °C

Molecule: Nc1cc(-c2c[nH]c3ccccc23)nn1-c1nc(Nc2ccc(Br)cc2)nc(N2CCCCC2)n1 [Compound 3f, 4-(5-Amino-3-(1H-indol-3-yl)-1H-pyrazol-1-yl)-N-(4-bromophenyl)-6-(piperidin-1-yl)-1,3,5-triazin-2-amine]
- IC50 [1, 8]: 14.8 ± 0.83 µM
- IC50 [2, 9]: 13.2 ± 0.55 µM
- IC50 ([3]; Homo sapiens, Fibroblast): 6.8 ± 1.02 µM
- melting point: 271 to 274 °C

Molecule: COc1ccc(Nc2nc(N3CCCCC3)nc(-n3nc(-c4c[nH]c5ccccc45)cc3N)n2)cc1 [Compound 3g, 4-(5-Amino-3-(1H-indol-3-yl)-1H-pyrazol-1-yl)-N-(4-methoxyphenyl)-6-(piperidin-1-yl)-1,3,5-triazin-2-amine]
- IC50 [1, 8]: 6.23 ± 0.48 µM
- IC50 [2, 9]: 7.68 ± 0.21 µM
- IC50 ([3]; Homo sapiens, Fibroblast): 4.36 ± 0.83 µM

Molecule: Nc1cc(-c2c[nH]c3ccccc23)nn1-c1nc(Nc2ccccc2)nc(N2CCOCC2)n1 [Compound 3h, 4-(5-Amino-3-(1H-indol-3-yl)-1H-pyrazol-1-yl)-6-morpholino-N-phenyl-1,3,5-triazin-2-amine]
- IC50 [1, 8]: 2.65 ± 0.22 µM
- IC50 [2, 9]: 2.66 ± 0.26 µM
- IC50 ([3]; Homo sapiens, Fibroblast): 14 ± 2.67 µM
- IC50 [4]: 64.2 ± 3.12 nM
- IC50 [5]: 112 ± 3.01 nM
- cells undergoing late apoptosis [6]: 12%
- cells undergoing early apoptosis [6]: 19.4%
- total apoptosis [6]: 31.4%
- total apoptotic cell death, fold vs control [6]: 51.4 fold
- necrosis-mediated cell death [6]: 4.98%
- necrosis-mediated cell death, fold increase [6]: 5.1 fold

Molecule: Nc1cc(-c2c[nH]c3ccccc23)nn1-c1nc(Nc2ccc(Br)cc2)nc(N2CCOCC2)n1 [Compound 3j, 4-(5-Amino-3-(1H-indol-3-yl)-1H-pyrazol-1-yl)-N-(4-bromophenyl)-6-morpholino-1,3,5-triazin-2-amine]
- IC50 [1, 8]: 2.32 ± 0.21 µM
- IC50 [2, 9]: 3.3 ± 0.32 µM
- IC50 ([3]; Homo sapiens, Fibroblast): 3.96 ± 0.73 µM
- IC50 [4]: 68.4 ± 2.98 nM
- IC50 [5]: 136 ± 3.14 nM
- cells undergoing late apoptosis [6]: 8.5%
- cells undergoing early apoptosis [6]: 22.6%
- total apoptosis [6]: 31.1%
- total apoptotic cell death, fold vs control [6]: 50.9 fold
- necrosis-mediated cell death [6]: 5.42%
- necrosis-mediated cell death, fold increase [6]: 5.58 fold

Molecule: COc1ccc(Nc2nc(N3CCOCC3)nc(-n3nc(-c4c[nH]c5ccccc45)cc3N)n2)cc1 [Compound 3k, 4-(5-Amino-3-(1H-indol-3-yl)-1H-pyrazol-1-yl)-N-(4-methoxyphenyl)-6-morpholino-1,3,5-triazin-2-amine]
- IC50 [1, 8]: 3.64 ± 1.26 µM
- IC50 [2, 9]: 4.11 ± 0.5 µM
- IC50 ([3]; Homo sapiens, Fibroblast): 8.9 ± 1.07 µM

Molecule: N#Cc1cnn(-c2nc(N3CCOCC3)nc(N3CCOCC3)n2)c1-c1c[nH]c2ccccc12 [Compound 5b, 1-(4,6-Dimorpholino-1,3,5-triazin-2-yl)-5-(1H-indol-3-yl)-1H-pyrazole-4 carbonitrile]
- IC50 [1, 8]: > 500 µM
- IC50 [2, 9]: > 500 µM
- IC50 ([3]; Homo sapiens, Fibroblast): > 500 µM
- melting point: 328 to 330 °C

Molecule: N#Cc1cnn(-c2nc(N3CCCCC3)nc(N3CCOCC3)n2)c1-c1c[nH]c2ccccc12 [Compound 5c, 5-(1H-Indol-3-yl)-1-(4-morpholino-6-(piperidin-1-yl)-1,3,5-triazin-2-yl)-1H-pyrazol4-carbonitrile]
- IC50 [1, 8]: 223 ± 88.3 µM
- IC50 [2, 9]: 152 ± 50.1 µM
- IC50 ([3]; Homo sapiens, Fibroblast): 537 ± 71.6 µM

Molecule: N#Cc1cnn(-c2nc(Nc3ccccc3)nc(N3CCCCC3)n2)c1-c1c[nH]c2ccccc12 [Compound 5d, 5-(1H-Indol-3-yl)-1-(4-(phenylamino)-6-(piperidin-1-yl)-1,3,5-triazin-2-yl)-1H-pyrazole-4-carbonitrile]
- IC50 [1, 8]: 10.3 ± 2.64 µM
- IC50 [2, 9]: 16.8 ± 0.78 µM
- IC50 ([3]; Homo sapiens, Fibroblast): 115 ± 14.8 µM
- melting point: 298 to 299 °C

Molecule: N#Cc1cnn(-c2nc(Nc3ccc(Cl)cc3)nc(N3CCCCC3)n2)c1-c1c[nH]c2ccccc12 [Compound 5e, 1-(4-((4-Chlorophenyl)amino)-6-(piperidin-1-yl)-1,3,5-triazin-2-yl)-5-(1H-indol-3-yl)-1H-pyrazole-4-carbonitrile]
- IC50 [1, 8]: > 500 µM
- IC50 [2, 9]: > 500 µM
- IC50 ([3]; Homo sapiens, Fibroblast): > 500 µM

Molecule: N#Cc1cnn(-c2nc(Nc3ccc(Br)cc3)nc(N3CCCCC3)n2)c1-c1c[nH]c2ccccc12 [Compound 5f, 1-(4-((4-Bromophenyl)amino)-6-(piperidin-1-yl)-1,3,5-triazin-2-yl)-5-(1H-indol-3-yl)-1H-pyrazole-4-carbonitrile]
- IC50 [1, 8]: > 500 µM
- IC50 [2, 9]: > 500 µM
- IC50 ([3]; Homo sapiens, Fibroblast): > 500 µM

Molecule: COc1ccc(Nc2nc(N3CCCCC3)nc(-n3ncc(C#N)c3-c3c[nH]c4ccccc34)n2)cc1 [Compound 5g, 5-(1H-Indol-3-yl)-1-(4-((4-methoxyphenyl)amino)-6-(piperidin-1-yl)-1,3,5-triazin-2-yl)-1H-pyrazole-4-carbonitrile]
- IC50 [1, 8]: > 500 µM
- IC50 [2, 9]: > 500 µM
- IC50 ([3]; Homo sapiens, Fibroblast): > 500 µM
- melting point: 273 to 275 °C

Molecule: N#Cc1cnn(-c2nc(Nc3ccccc3)nc(N3CCOCC3)n2)c1-c1c[nH]c2ccccc12 [Compound 5h, 5-(1H-Indol-3-yl)-1-(4-morpholino-6-(phenylamino)-1,3,5-triazin-2-yl)-1H-pyrazole-4-carbonitrile]
- IC50 [1, 8]: 7.62 ± 0.85 µM
- IC50 ([3]; Homo sapiens, Fibroblast): 23.8 ± 3.37 µM
- melting point: 314 to 316 °C

Molecule: N#Cc1cnn(-c2nc(Nc3ccc(Cl)cc3)nc(N3CCOCC3)n2)c1-c1c[nH]c2ccccc12 [Compound 5i, 1-(4-((4-Chlorophenyl)amino)-6-morpholino-1,3,5-triazin-2-yl)-5-(1H-indol-3-yl)-1H-pyrazole-4-carbonitrile]
- IC50 [1, 8]: 44.5 ± 19.2 µM
- IC50 [2, 9]: 59.8 ± 0.81 µM
- IC50 ([3]; Homo sapiens, Fibroblast): > 500 µM

Molecule: N#Cc1cnn(-c2nc(Nc3ccc(Br)cc3)nc(N3CCOCC3)n2)c1-c1c[nH]c2ccccc12 [Compound 5j, 1-(4-((4-Bromophenyl)amino)-6-morpholino-1,3,5-triazin-2-yl)-5-(1H-indol-3-yl)-1H-pyrazole-4-carbonitrile]
- IC50 [1, 8]: 23.2 ± 2.27 µM
- IC50 [2, 9]: 51.1 ± 10.3 µM
- IC50 ([3]; Homo sapiens, Fibroblast): > 500 µM

Molecule: COc1ccc(Nc2nc(N3CCOCC3)nc(-n3ncc(C#N)c3-c3c[nH]c4ccccc34)n2)cc1 [Compound 5k, 5-(1H-Indol-3-yl)-1-(4-((4-methoxyphenyl)amino)-6-morpholino-1,3,5-triazin-2-yl)-1H-pyrazole-4-carbonitrile]
- IC50 [1, 8]: > 500 µM
- IC50 [2, 9]: > 500 µM
- IC50 ([3]; Homo sapiens, Fibroblast): > 500 µM
- melting point: 293 to 295 °C

Molecule: COc1cccc2c1C(=O)c1c(O)c3c(c(O)c1C2=O)C[C@@](O)(C(=O)CO)C[C@@H]3O[C@H]1C[C@H](N)[C@H](O)[C@H](C)O1 [Doxorubicin, reference compound]
- IC50 [1, 8]: 0.28 ± 0.11 µM
- IC50 [2, 9]: 0.06 ± 0.02 µM
- IC50 ([3]; Homo sapiens, Fibroblast): 0.42 ± 0.27 µM
